In ChEMBL document CHEMBL4330113, “Discovery of new quinazoline derivatives as irreversible dual EGFR/HER2 inhibitors and their anticancer activities - Part 1” (Bioorg Med Chem Lett, 2019):

How the values were obtained:
A-431 = test: cells; settings: Homo sapiens, A-431, 72 h
HCC827 = test: cells; settings: Homo sapiens, HCC827, 72 h
NCI-H1975 [1] = test: cells; settings: Homo sapiens, NCI-H1975, 72 h
MDA-MB-453 = test: Antiproliferative activity against human MDA-MB-453 cells after 72 hrs by CCK8 assay; assay type: functional, cell-based; settings: MDA-MB-453, 72 h
NCI-H1975 [2] = test: Antitumor activity against human NCI-H1975 cells harboring EGFR T790M mutant xenografted in po dosed BALB/c mouse assessed as tumor growth inhibition administered via gavage qd or qod for 14 days measured at 7 days post last dose; assay type: functional, organism-based
[3] = Half life in Sprague-Dawley rat at 5 mg/kg, iv or 10 mg/kg, po; assay type: ADME, organism-based; settings: in vivo
[4] = Oral bioavailability in Sprague-Dawley rat at 10 mg/kg; assay type: ADME, organism-based; settings: in vivo
[5] = Tmax in Sprague-Dawley rat at 5 mg/kg, iv or 10 mg/kg, po; assay type: ADME, organism-based; settings: in vivo
NCI-H1975 [6] = test: Antitumor activity against human NCI-H1975 cells harboring EGFR T790M mutant xenografted in BALB/c mouse assessed as tumor growth inhibition at 80 mg/kg, po administered every other day via gavage for 14 days measured at 7 days post last dose relative to control; assay type: functional
NCI-H1975 [7] = test: Antitumor activity against human NCI-H1975 cells harboring EGFR T790M mutant xenografted in BALB/c mouse assessed as tumor growth inhibition at 5 mg/kg, po administered daily via gavage for 14 days measured at 7 days post last dose relative to control; assay type: functional
[8] = Cmax in Sprague-Dawley rat at 5 mg/kg, iv or 10 mg/kg, po; assay type: ADME, organism-based; settings: in vivo
NCI-H1975 [9] = test: Antitumor activity against human NCI-H1975 cells harboring EGFR T790M mutant xenografted in BALB/c mouse assessed as tumor growth inhibition at 20 mg/kg, po administered every other day via gavage for 14 days measured at 7 days post last dose relative to control; assay type: functional
[10] = biological target: Epidermal growth factor receptor (Homo sapiens, UniProt P00533); test: Inhibition of recombinant human GST-tagged EGFR catalytic domain (668 to 1210 residues) expressed in baculovirus expression system using TK-biotin peptide as substrate measured after 10 mins by HTRF assay
NCI-H1975 [11] = test: Antitumor activity against human NCI-H1975 cells harboring EGFR T790M mutant xenografted in BALB/c mouse assessed as tumor growth inhibition at 20 mg/kg, po administered daily via gavage for 14 days measured at 7 days post last dose relative to control; assay type: functional

Chain of Epidermal growth factor receptor (P00533 whole entry, the tested form may be a part): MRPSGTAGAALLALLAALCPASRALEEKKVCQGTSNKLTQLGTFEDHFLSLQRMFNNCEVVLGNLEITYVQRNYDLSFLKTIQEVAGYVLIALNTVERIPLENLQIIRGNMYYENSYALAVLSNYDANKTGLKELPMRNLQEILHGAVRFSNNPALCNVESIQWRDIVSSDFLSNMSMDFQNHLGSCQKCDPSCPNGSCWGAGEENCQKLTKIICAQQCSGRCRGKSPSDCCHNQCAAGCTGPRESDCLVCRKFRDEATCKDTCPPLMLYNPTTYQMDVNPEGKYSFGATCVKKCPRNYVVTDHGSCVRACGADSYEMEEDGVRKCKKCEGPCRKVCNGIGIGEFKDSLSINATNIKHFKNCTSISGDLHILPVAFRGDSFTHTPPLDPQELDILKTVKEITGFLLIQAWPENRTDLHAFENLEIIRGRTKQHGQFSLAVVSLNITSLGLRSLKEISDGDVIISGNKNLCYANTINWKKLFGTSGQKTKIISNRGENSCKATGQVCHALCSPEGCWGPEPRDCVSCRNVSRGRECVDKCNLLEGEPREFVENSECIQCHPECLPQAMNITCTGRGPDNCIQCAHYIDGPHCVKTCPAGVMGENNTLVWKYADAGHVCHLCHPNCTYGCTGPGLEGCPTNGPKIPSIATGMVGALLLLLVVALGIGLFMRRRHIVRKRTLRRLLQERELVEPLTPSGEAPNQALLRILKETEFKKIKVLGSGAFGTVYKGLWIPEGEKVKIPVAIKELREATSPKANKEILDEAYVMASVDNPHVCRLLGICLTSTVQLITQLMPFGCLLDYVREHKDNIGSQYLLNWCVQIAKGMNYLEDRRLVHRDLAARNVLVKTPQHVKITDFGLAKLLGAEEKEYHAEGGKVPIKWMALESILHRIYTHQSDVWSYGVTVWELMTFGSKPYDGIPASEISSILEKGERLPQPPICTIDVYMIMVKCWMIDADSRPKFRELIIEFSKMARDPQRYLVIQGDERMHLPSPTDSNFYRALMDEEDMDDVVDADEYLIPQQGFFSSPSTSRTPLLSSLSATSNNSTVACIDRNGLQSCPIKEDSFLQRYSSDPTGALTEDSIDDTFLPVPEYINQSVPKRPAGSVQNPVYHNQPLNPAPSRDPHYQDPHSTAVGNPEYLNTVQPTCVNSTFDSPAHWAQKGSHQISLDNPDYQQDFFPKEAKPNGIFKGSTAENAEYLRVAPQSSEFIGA

| Structure (SMILES) | IC50 (A-431) | IC50 (HCC827) | IC50 (NCI-H1975 [1]) | IC50 (MDA-MB-453) | further results |
| --- | --- | --- | --- | --- | --- |
| CCOCCOc1cc2ncnc(Nc3ccc(OCC(F)(F)F)c(Cl)c3)c2cc1NC(=O)/C=C/CN(C)C | 64.1 nM | 2.9 nM | 107 nM | 2.55 nM | – |
| CCOCCOc1cc2ncnc(Nc3ccc(F)c(Cl)c3)c2cc1NC(=O)/C=C/CN(C)C [listing 1 of 2 here] | – | – | – | – | TGI (NCI-H1975 [2]): Dose-dependent effect |
| CCOCCOc1cc2ncnc(Nc3ccc(OCc4cccc(F)c4)c(Cl)c3)c2cc1NC(=O)/C=C/CN(C)C | 79.5 nM | – | 49.7 nM | – | – |
| COC[C@H](C)Oc1cc2ncnc(Nc3ccc(F)c(Cl)c3)c2cc1NC(=O)/C=C/CN(C)C | 16.7 nM | – | 66.5 nM | – | – |
| CCOCCOc1ccc(Nc2ncnc3cc(OCCOCC)c(NC(=O)/C=C/CN(C)C)cc23)cc1Cl | 13.7 nM | 0.34 nM | 6.17 nM | 2.52 nM | – |
| CC(C)OCCOc1cc2ncnc(Nc3ccc(F)c(Cl)c3)c2cc1NC(=O)/C=C/CN(C)C | 5.86 nM | 0.55 nM | – | – | – |
| CN(C)C/C=C/C(=O)Nc1cc2c(Nc3ccc(F)c(Cl)c3)ncnc2cc1O[C@H]1CCOC1 [AFATINIB] | – | – | – | – | inhibition in vivo at 20 mg/kg (NCI-H1975 [11]): 67.6% |
| CCOCCOc1cc2ncnc(Nc3ccc(NCCS(C)(=O)=O)c(Cl)c3)c2cc1NC(=O)/C=C/CN(C)C | 6.48 nM | 0.53 nM | 65.6 nM | 12.7 nM | – |
| COCCCOc1cc2ncnc(Nc3ccc(F)c(Cl)c3)c2cc1NC(=O)/C=C/CN(C)C | – | 0.29 nM | – | – | – |
| CCCOCCOc1cc2ncnc(Nc3ccc(F)c(Cl)c3)c2cc1NC(=O)/C=C/CN(C)C | 8.15 nM | 0.55 nM | – | – | – |
| CCOCCOc1cc2ncnc(Nc3ccc(OCCOC)c(Cl)c3)c2cc1NC(=O)/C=C/CN(C)C | 20.1 nM | 3.43 nM | 7.3 nM | 1.65 nM | – |
| CCOCCOc1cc2ncnc(Nc3ccc(F)c(Cl)c3)c2cc1NC(=O)/C=C/CN(C)C.O=C(O)/C=C\C(=O)O | – | – | – | – | bioavailability [4]: 70% |
| CCOCCOc1cc2ncnc(Nc3ccc(F)c(Cl)c3)c2cc1NC(=O)/C=C/C(=O)OCC | 207 nM | 0.987 nM | 35.2 nM | 21.6 nM | – |
| COC[C@@H](C)Oc1cc2ncnc(Nc3ccc(F)c(Cl)c3)c2cc1NC(=O)/C=C/CN(C)C | 43 nM | – | 49.9 nM | – | – |

Second part, led by results:

| IC50 (A-431) | IC50 (HCC827) | IC50 (NCI-H1975 [1]) | IC50 (MDA-MB-453) | Structure (SMILES) | further results |
| --- | --- | --- | --- | --- | --- |
| 6.01 nM | 0.15 nM | 51.8 nM | 5.67 nM | C=CC(=O)Nc1cc2c(Nc3ccc(F)c(Cl)c3)ncnc2cc1OCCOCC | – |
| 297 nM | 4.86 nM | 8.21 nM | 3.99 nM | CCOCCOc1cc2ncnc(Nc3ccc(F)c(Cl)c3)c2cc1NC(=O)/C=C/Br | – |
| 1.52 nM | 0.31 nM | – | 0.62 nM | CCOCCOc1cc2ncnc(Nc3ccc(F)c(Cl)c3)c2cc1NC(=O)/C=C/CN(C)C [listing 2 of 2 here] | half-life [3]: 6.8 h; bioavailability [4]: 46%; Tmax [5]: 4 h; inhibition in vivo at 80 mg/kg (NCI-H1975 [6]): 95.1%; inhibition in vivo at 5 mg/kg (NCI-H1975 [7]): 73.2%; Cmax [8]: 92.3 ng/mL; inhibition in vivo at 20 mg/kg (NCI-H1975 [9]): 82%; IC50 [10]: 0.69 nM |
| 24 nM | – | 1.6 nM | – | CCOCCOc1cc2ncnc(Nc3ccc(F)c(Cl)c3)c2cc1NC(=O)/C=C\Cl | – |
| 3.37 nM | 3.95 nM | 13.7 nM | 130 nM | C=CS(=O)(=O)Nc1cc2c(Nc3ccc(F)c(Cl)c3)ncnc2cc1OCCOCC | – |
| 94.8 nM | 5.56 nM | 18.4 nM | 0.68 nM | CCOCCOc1cc2ncnc(Nc3ccc(F)c(Cl)c3)c2cc1NC(=O)/C=C\C#N | – |
| 289 nM | – | 7.43 nM | 14.9 nM | CCOCCOc1cc2ncnc(Nc3ccc(F)c(Cl)c3)c2cc1NC(=O)/C=C/Cl | – |
| 11.4 nM | 1.46 nM | 49.3 nM | 3.42 nM | C#CC(=O)Nc1cc2c(Nc3ccc(F)c(Cl)c3)ncnc2cc1OCCOCC | – |
| 572 nM | 6.39 nM | 39.4 nM | 15.1 nM | C=C(Br)C(=O)Nc1cc2c(Nc3ccc(F)c(Cl)c3)ncnc2cc1OCCOCC | – |
| 369 nM | 33.2 nM | 37.1 nM | 3.71 nM | C=C(Cl)C(=O)Nc1cc2c(Nc3ccc(F)c(Cl)c3)ncnc2cc1OCCOCC | – |
| 54.5 nM | 0.53 nM | 72.5 nM | 58.2 nM | C=C(F)C(=O)Nc1cc2c(Nc3ccc(F)c(Cl)c3)ncnc2cc1OCCOCC | – |
| 148 nM | 0.15 nM | 27.6 nM | 18.3 nM | CCOCCOc1cc2ncnc(Nc3ccc(F)c(Cl)c3)c2cc1NC(=O)/C=C/C(F)(F)F | – |
